# Assay results from patent US7179806B2, “Δ1-pyrrolines used as pesticides” (Bayer Cropscience AG, priority 2000, dated 2007).
# System: larvae of the mustard beetle (Phaedon cochleariae)
# Assay: Phaedon larvae test (cabbage leaves dipped)
# Assay type: in vivo
# Settings: active compound concentration 1000 ppm
# Method: (§1) Phaedon Larvae Test To produce a suitable preparation of active compound, 1 part by weight of active compound is mixed with the stated amounts of solvent and emulsifier, and the concentrate is diluted with emulsifier-containing water to the desired concentration. Cabbage leaves (Brassica oleracea) are treated by being dipped into the preparation of active compound of the desired concentration and are populated with larvae of the mustard beetle (Phaedon cochleariae) whilst the leaves are still moist. After the desired period of time, the kill in % is determined. 100% means that all beetle larvae have been killed; 0% means that none of the beetle larvae have been killed.
row,SMILES,Kill rate in % after 7 d
1,CC(C)Oc1ncc(-c2ccc(C3CCC(c4c(F)cccc4F)=N3)cc2)cn1 (stereo not drawn) [drawing 270],100%
2,Fc1cccc(F)c1C1=NC(c2ccc(-c3ccc(C(F)(F)F)cn3)cc2)CC1 (stereo not drawn) [drawing 271],100%
3,CC(C)Sc1ncc(-c2ccc(C3CCC(c4c(F)cccc4F)=N3)cc2)cn1 (stereo not drawn) [drawing 272],100%
4,Fc1cccc(F)c1C1=NC(c2ccc(-c3ccc(OCC(F)(F)F)nc3)cc2)CC1 (stereo not drawn) [drawing 273],100%
5,CCCN(CC)c1ncc(-c2ccc(C3CCC(c4c(F)cccc4F)=N3)cc2)cn1 (stereo not drawn) [drawing 274],100%
6,CC1CC(C)CN(c2ncc(-c3ccc(C4CCC(c5c(F)cccc5F)=N4)cc3)cn2)C1 (stereo not drawn) [drawing 275],100%
7,Fc1cccc(F)c1C1=NC(c2ccc(-c3cnc(N4CCCCC4)nc3)cc2)CC1 (stereo not drawn) [drawing 276],100%

# System: not listed separately
# Assay: log P determination by HPLC (reversed-phase C18, EEC Directive 79/831 Annex V.A8)
# Assay type: physicochemical
# Settings: reversed-phase C18 HPLC column, pH 2.3, pH 2.3, 0.1% aqueous phosphoric acid/acetonitrile gradient, 43° C
# Description: Mobile phases for determination in the acidic range: 0.1% aqueous phosphoric acid, acetonitrile; linear gradient from 10% acetonitrile to 90% acetonitrile.
row,chromatographic logP,SMILES
1,1.09,"O=C1CCCN1c1ccc(Cl)nn1 [III-14, 1-(6-chloro-3-pyridazinyl)-2-pyrrolidinone]"
2,0.95,"Clc1ccc(NC2CCCCC2)nn1 [III-15, N-(6-chloro-3-pyridazinyl)-N-cyclohexylamine]"
3,1.69,"CN(C(=O)C(C)(C)C)c1ccc(Cl)nn1 [III-17, N-(6-chloro-3-pyridazinyl)-N-methyl-N-2,2-trimethylpropanamide]"
4,1.94,"CC(C)Oc1ccc(Cl)nn1 [III-18, 3-chloro-6-isopropoxypyridazine]"
5,2.05,"FC(F)(F)COc1ccc(Cl)nn1 [III-19, 3-chloro-6-(2,2,2-trifluoroethoxy)pyridazine]"
6,2.34,"CC(C)Sc1ccc(Cl)nn1 [III-20, 6-chloro-3-pyridazinyl isopropyl sulphide]"
7,1.2,"CC(C)S(=O)(=O)c1ccc(Cl)nn1 [III-21, 6-chloro-3-pyridazinyl isopropyl sulphone]"
8,1.56,"O=S(=O)(Nc1ccc(Cl)nn1)C(F)(F)F [III-22, N-(6-chloro-3-pyridazinyl)(trifluoro)methane-sulphonamide]"
9,2.18,"CN(c1ccc(Cl)nn1)S(=O)(=O)C(F)(F)F [III-23, N-(6-chloro-3-pyridazinyl)(trifluoro)-N-methyl-methanesulphonamide]"

# System: Heliothis virescens caterpillars
# Assay: Heliothis virescens test (soya bean shoots dipped)
# Assay type: in vivo
# Settings: active compound concentration 40 ppm
# Method: as §1, with “Heliothis Virescens” for “Phaedon Larvae”, “Soya bean shoots (Glycine max)” for “Cabbage leaves (Brassica oleracea)”, “Heliothis virescens caterpillars” for “larvae of the mustard beetle (Phaedon cochleariae)”, “caterpillars” for “beetle larvae”
row,SMILES,Kill rate in % after 7 d
1,Fc1cccc(F)c1C1=NC(c2ccc(-c3ccc(OCC(F)(F)F)nn3)cc2)CC1 (stereo not drawn) [drawing 264],100%
2,CC(C)Oc1ncc(-c2ccc(C3CCC(c4c(F)cccc4F)=N3)cc2)cn1 (stereo not drawn) [drawing 265],100%
3,Fc1cccc(F)c1C1=NC(c2ccc(-c3ccc(C(F)(F)F)cn3)cc2)CC1 (stereo not drawn) [drawing 266],100%
4,CCCN(CC)c1ncc(-c2ccc(C3CCC(c4c(F)cccc4F)=N3)cc2)cn1 (stereo not drawn) [drawing 268],100%

# Same assay, conditions: active compound concentration 500 ppm
row,SMILES,Kill rate in % after 7 d
1,Fc1cccc(F)c1C1=NC(c2ccc(-c3ccc(OCC(F)(F)F)nc3)cc2)CC1 (stereo not drawn) [drawing 267],100%
2,Fc1cccc(F)c1C1=NC(c2ccc(-c3ccc(N4CCOCC4)nc3)cc2)CC1 (stereo not drawn) [drawing 269],100%

# System: army worm (Spodoptera frugiperda) caterpillars
# Assay: Spodoptera frugiperda test (cabbage leaves dipped)
# Assay type: in vivo
# Settings: 168 h, active compound concentration 500 ppm, after 7 d, read-out: Kill rate in % after 7 d
# Method: as §1, with “Spodoptera frugiperda” for “Phaedon Larvae”, “army worm (Spodoptera frugiperda) caterpillars” for “larvae of the mustard beetle (Phaedon cochleariae)”, “caterpillars” for “beetle larvae”
row,SMILES,pest or weed control at 500 ppm
1,O=C1CCCN1c1ccc(-c2ccc(C3CCC(c4c(F)cccc4F)=N3)cc2)nn1 (stereo not drawn) [drawing 285],100%
2,CN(c1ccc(-c2ccc(C3CCC(c4c(F)cccc4F)=N3)cc2)nn1)S(=O)(=O)C(F)(F)F (stereo not drawn) [drawing 286],100%
3,CCCCN(CCCC)c1ccc(-c2ccc(C3CCC(c4c(F)cccc4F)=N3)cc2)nn1 (stereo not drawn) [drawing 287],100%

# Same assay, conditions: 168 h, active compound concentration 1000 ppm, after 7 d, read-out: Kill rate in % after 7 d
row,SMILES,pest or weed control at 1000 ppm
1,CCCCCCN(CCCCCC)c1ccc(-c2ccc(C3CCC(c4c(F)cccc4F)=N3)cc2)nn1 (stereo not drawn),100%
2,Fc1cccc(F)c1C1=NC(c2ccc(-c3ccc(Cl)cn3)cc2)CC1 (stereo not drawn) [drawing 280],100%
3,CN(C)c1ncc(-c2ccc(C3CCC(c4c(F)cccc4F)=N3)cc2)cn1 (stereo not drawn) [drawing 281],100%
4,CC(C)Oc1ccc(-c2ccc(C3CCC(c4c(F)cccc4F)=N3)cc2)nn1 (stereo not drawn) [drawing 282],100%
5,CC(C)Sc1ccc(-c2ccc(C3CCC(c4c(F)cccc4F)=N3)cc2)nn1 (stereo not drawn) [drawing 283],100%
6,Fc1cccc(F)c1C1=NC(c2ccc(-c3cnc(N4CCOCC4)nc3)cc2)CC1 (stereo not drawn) [drawing 284],100%
7,CCCCCCC(=O)N(c1ccc(-c2ccc(C3CCC(c4c(F)cccc4F)=N3)cc2)nn1)C1CCCC1 (stereo not drawn) [drawing 289],100%
8,CCCCCCN(C(=O)C(C)(C)C)c1ccc(-c2ccc(C3CCC(c4c(F)cccc4F)=N3)cc2)nn1 (stereo not drawn) [drawing 290],100%
9,CC(C)COc1ncc(-c2ccc(C3CCC(c4c(F)cccc4F)=N3)cc2)cn1 (stereo not drawn) [drawing 291],100%
10,CC1CC(C)CN(c2ncc(-c3ccc(C4CCC(c5c(F)cccc5F)=N4)cc3)cn2)C1 (stereo not drawn) [drawing 292],100%

# System: greenhouse red spider mite (tetranychus urticae)
# Assay: Tetranychus test (OP-resistant/dip treatment)
# Assay type: in vivo
# Settings: active compound concentration 100 ppm, OP-resistant, dip treatment
# Method: Tetranychus Test (OP Resistant/Dip Treatment)
# To produce a suitable preparation of active compound, 1 part by weight of active compound is mixed with the stated amounts of solvent and emulsifier, and the concentrate is diluted with emulsifier-containing water to the desired concentration.
# Bean plants (Phaseolus vulgaris) which are heavily infested by all stages of the greenhouse red spider mite (tetranychus urticae) are dipped into a preparation of active compound of the desired concentration.
# After the desired period of time, the effect in % is determined. 100% means that all spider mites have been killed; 0% means that none of the spider mites have been killed.
row,SMILES,Kill rate in % after 7 d
1,Fc1cccc(F)c1C1=NC(c2ccc(-c3cncnc3)cc2)CC1 (stereo not drawn) [drawing 293],98%
2,Fc1cccc(F)c1C1=NC(c2ccc(-c3ccc(Cl)cn3)cc2)CC1 (stereo not drawn) [drawing 294],98%
3,CN(C)c1ncc(-c2ccc(C3CCC(c4c(F)cccc4F)=N3)cc2)cn1 (stereo not drawn) [drawing 295],98%
4,CC(C)Oc1ncc(-c2ccc(C3CCC(c4c(F)cccc4F)=N3)cc2)cn1 (stereo not drawn) [drawing 296],98%
5,CC(C)Sc1ccc(-c2ccc(C3CCC(c4c(F)cccc4F)=N3)cc2)nn1 (stereo not drawn) [drawing 297],98%
6,Fc1cccc(F)c1C1=NC(c2ccc(-c3cnc(N4CCOCC4)nc3)cc2)CC1 (stereo not drawn) [drawing 298],98%
7,Fc1cccc(F)c1C1=NC(c2ccc(-c3ccc(Cl)nc3)cc2)CC1 (stereo not drawn) [drawing 299],98%

# System: army worm (Spodoptera exigua) caterpillars
# Assay: Spodoptera exigua test (cabbage leaves dipped)
# Assay type: in vivo
# Settings: active compound concentration 500 ppm
# Method: as §1, with “Spodoptera Exigua” for “Phaedon Larvae”, “army worm (Spodoptera exigua) caterpillars” for “larvae of the mustard beetle (Phaedon cochleariae)”, “caterpillars” for “beetle larvae”
row,SMILES,Kill rate in % after 7 d
1,Fc1cccc(F)c1C1=NC(c2ccc(-c3ccc(OCC(F)(F)F)nc3)cc2)CC1 (stereo not drawn) [drawing 277],100%
2,CCCN(CC)c1ncc(-c2ccc(C3CCC(c4c(F)cccc4F)=N3)cc2)cn1 (stereo not drawn) [drawing 278],100%

# Same assay, conditions: active compound concentration 1000 ppm
row,SMILES,Kill rate in % after 7 d
1,Fc1cccc(F)c1C1=NC(c2ccc(-c3ccc(N4CCOCC4)nc3)cc2)CC1 (stereo not drawn) [drawing 279],100%
